Data reported in patent EP0572122A2, “C-terminal modified osteogenic growth polypeptides” (YISSUM RESEARCH AND DEVELOPMENT COMPANY OF THE HEBREW …, priority 1992, dated 1993).

Test system: anti-OGP IgG
Test: ELISA reactivity of peptides with the anti-OGP IgG preparation
Type: binding, rabbits
Settings: polyclonal rabbit anti-OGP IgG fraction
Procedure: The wells were washed with 200 µl PBS (x3). Blocking of unreacted sites on the plastic well bottom was carried out by incubation of 1% gelatine in PBS at 37°C for 1 h. Rinsing with PBS (3 x 200 µl) was followed by 2 h incubation with the anti-OGP IgG preparation (diluted 1:300 with reference to the original rabbit anti-serum) at room temperature. This was followed by rinsing with (i) 3% BSA in PBS (1 x 200 µl); (ii) 0.02% Tween 20 in PBS (1 x 200 µl); and (iii) PBS (3 x 200 µl). The wells were then incubated with 100 µl of 1:1000 dilution in PBS of goat alkaline phosphatase conjugated anti-rabbit IgG for 2 h at room temperature. Rinsing with (i) 0.02% Tween in PBS (1 x 200 µl); (ii) PBS (2 x 200 µl); (iii) bidistilled water (3 x 200 µl) preceded a 20 min incubation at room temperature with alkaline phosphatase buffer solution: p-nitrophenyl phosphate 1 mg/ml in substrate buffer (diethanolamine buffer pH 9.6). Light absorbance at 450 nm was then recorded using an ELISA reader.

“parathyroid hormone (PTH) (1-34) [PTH (1-34)]” was tested, and the “binding to / reaction with anti-OGP IgG in ELISA” value was “failed to react”.
